In general, IC50 refers to the concentration that inhibits the measured activity by half.

Type in all cases: cell-based
One test addresses T1, PTGER2 (EP2) (Homo sapiens, UniProt P43116).
T1 construct: host or cells: HEK 293 (PathHunter PTGER2 b-arrestin cell line)
As to the kind of experiment: hEP2 b-arrestin assay (PathHunter HEK 293 PTGER2 b-arrestin cells). The note with it: antagonistic activity, beta-arrestin assay; read-out: hEP2 b-arr IC50. The procedure, abridged:
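Antagonism measured as inhibition of PGE2-driven β-arrestin 2 recruitment (enzyme fragment complementation, luminescence) in engineered HEK293 EP2 cells. Agonist: 5 μM PGE2, ~EC80, 120 min at 37 °C after 15 min compound preincubation; test range 10 μM-2 nM or 1 μM-0.2 nM, duplicates, IC50 fitted.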

In another test the target is T2, PTGER4 (EP4) (Homo sapiens, UniProt P35408).
T2 construct: host or cells: HEK 293 (PathHunter PTGER4 b-arrestin cell line)
As to the kind of experiment: hEP4 b-arrestin assay (PathHunter HEK 293 PTGER4 b-arrestin cells). The settings on record: antagonistic activity, beta-arrestin assay; read-out: hEP4 b-arr IC50. In a few lines:
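β-Arrestin recruitment to EP4 was read as enzyme-fragment-complementation chemiluminescence in stably transfected HEK 293 cells. After 15 min compound preincubation at 37 °C (ranges 10 μM–2 nM or 1 μM–0.2 nM), cells were stimulated 120 min with PGE2 at 20 nM, its EC80. IC50 values were fitted from duplicates, with repeat measurements averaged.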

Another test addresses T3, EP4 receptor (Homo sapiens, UniProt P35408).
T3 construct: BT549 breast cancer cells, express high endogenous EP4 levels and very low EP2 levels; host or cells: BT549 breast cancer cells
As to the kind of experiment: hEP4 cAMP assay (BT549 breast cancer cells, HTRF cAMP, PGE2 stimulation). The note with it: antagonistic activity, PGE2 6 nM (EC80). The procedure, abridged:
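BT549 cells, with endogenous EP4 and very low EP2, were preincubated 45 min at room temperature with compound in HBSS/HEPES/BSA buffer with 2 mM IBMX. They were then stimulated 30 min with 6 nM PGE2 (EC80). cAMP was measured by HTRF competitive immunoassay against a calibrator; IC50 from duplicate dose-response as % of DMSO control.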
(cAMP levels reflect the balance of adenylyl cyclase and phosphodiesterase activity.)

T2 sequence (P35408 whole entry): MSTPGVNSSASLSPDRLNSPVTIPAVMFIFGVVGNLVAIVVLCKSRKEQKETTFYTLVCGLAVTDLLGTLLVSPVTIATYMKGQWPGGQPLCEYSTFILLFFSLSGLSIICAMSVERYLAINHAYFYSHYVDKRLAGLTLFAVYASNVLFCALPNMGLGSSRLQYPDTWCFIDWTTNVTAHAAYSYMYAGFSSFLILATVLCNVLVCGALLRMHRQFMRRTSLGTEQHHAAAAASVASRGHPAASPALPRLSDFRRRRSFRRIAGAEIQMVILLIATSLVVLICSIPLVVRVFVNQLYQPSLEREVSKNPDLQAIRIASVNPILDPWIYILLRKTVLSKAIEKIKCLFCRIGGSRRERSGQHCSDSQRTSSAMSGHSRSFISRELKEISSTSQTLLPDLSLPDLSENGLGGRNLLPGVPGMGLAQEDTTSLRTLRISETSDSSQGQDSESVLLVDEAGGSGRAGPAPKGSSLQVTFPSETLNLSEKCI
T3 sequence (P35408 whole entry): as above
T1 sequence (P43116 whole entry): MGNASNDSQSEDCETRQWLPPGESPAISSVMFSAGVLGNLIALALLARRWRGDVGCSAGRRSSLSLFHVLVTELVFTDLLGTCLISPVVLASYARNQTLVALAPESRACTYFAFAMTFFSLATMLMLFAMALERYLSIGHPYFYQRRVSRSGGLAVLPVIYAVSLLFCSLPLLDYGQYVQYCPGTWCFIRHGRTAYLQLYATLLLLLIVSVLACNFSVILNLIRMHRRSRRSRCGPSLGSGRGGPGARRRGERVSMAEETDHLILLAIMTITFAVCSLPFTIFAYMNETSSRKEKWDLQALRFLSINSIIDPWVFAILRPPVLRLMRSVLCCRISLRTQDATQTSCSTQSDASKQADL

Take `Cc1oc2c(C)cc(F)cc2c1CCNc1cc(-c2ccc(C(=O)O)c(OC3CCCC3)c2)ncn1` [Example 154, 2-Cyclopentyloxy-4-{6-[2-(5-fluoro-2,7-dimethyl-benzofuran-3-yl)-ethylamino]-pyrimidin-4-yl}-benzoic acid]: the IC50 was 0.047 µM at PTGER2 (EP2), 0.911 µM at PTGER4 (EP4) and 0.901 µM on EP4 receptor.

With `CCOc1cc(-c2cc(NCCc3c(C)sc4c(C)cc(F)cc34)ncn2)ccc1-c1noc(=O)[nH]1` [Example 155, 3-(2-Ethoxy-4-{6-[2-(5-fluoro-2,7-dimethyl-benzo[b]thiophen-3-yl)-ethylamino]-pyrimidin-4-yl}-phenyl)-[1,2,4]oxadiazol-5(4H)-one [tautomeric form: 3-(2-ethoxy-4-(6-((2-(5-fluoro-2,7-dimethylbenzo[b]thiophen-3-yl)ethyl)amino)pyrimidin-4-yl)phenyl)-[1,2,4]oxadiazol-5-ol]], the IC50 at PTGER2 (EP2) was found to be 0.018 µM; on PTGER4 (EP4), 0.047 µM; against EP4 receptor it was 0.108 µM.

On to `CCOc1cc(-c2cc(NCCc3c(C)sc4c(C)cc(F)cc34)ncn2)sc1C(=O)NS(N)(=O)=O` [Example 156, 3-Ethoxy-5-(6-((2-(5-fluoro-2,7-dimethylbenzo[b]thiophen-3-yl)ethyl)amino)pyrimidin-4-yl)-N-sulfamoylthiophene-2-carboxamide], for which the IC50 at PTGER2 (EP2) came to 0.005 µM; at PTGER4 (EP4), 0.026 µM; against EP4 receptor, 0.163 µM.

On to `CCOc1cc(-c2cc(NCCc3c(C)sc4c(C)cc(F)cc34)ncn2)sc1C(=O)NS(C)(=O)=O` [Example 157, N-(3-Ethoxy-5-{6-[2-(5-fluoro-2,7-dimethyl-benzo[b]thiophen-3-yl)-ethylamino]-pyrimidin-4-yl}-thiophene-2-carbonyl)-methanesulfonamide], for which the half-maximal inhibitory concentration (IC50) was found to be 0.008 µM at PTGER2 (EP2), 0.042 µM on PTGER4 (EP4) and 0.069 µM on EP4 receptor.

On to `CCOc1cc(-c2cc(NCCc3c(C)sc4c(C)cc(F)cc34)ncn2)sc1-c1nnn[nH]1` [Example 158, {6-[4-Ethoxy-5-(1H-tetrazol-5-yl)-thiophen-2-yl]-pyrimidin-4-yl}-[2-(5-fluoro-2,7-dimethyl-benzo[b]thiophen-3-yl)-ethyl]-amine], for which the concentration for half-maximal inhibition (IC50) at PTGER2 (EP2) came to 0.006 µM; at PTGER4 (EP4), 0.007 µM; against EP4 receptor it was 0.02 µM.

Turning to `CCOc1nc(-c2cc(NCCc3c(C)sc4c(C)cc(F)cc34)ncn2)sc1C(=O)O` [Example 160, 4-Ethoxy-2-{6-[2-(5-fluoro-2,7-dimethyl-benzo[b]thiophen-3-yl)-ethylamino]-pyrimidin-4-yl}-thiazole-5-carboxylic acid], the IC50 on PTGER2 (EP2) is 0.015 µM; at PTGER4 (EP4), 0.016 µM; against EP4 receptor, 0.018 µM.

For the compound `CCc1nc(-c2cc(NCCc3c(C)sc4c(C)cc(F)cc34)ncn2)sc1C(=O)O` [Example 161, 4-Ethyl-2-{6-[2-(5-fluoro-2,7-dimethyl-benzo[b]thiophen-3-yl)-ethylamino]-pyrimidin-4-yl}-thiazole-5-carboxylic acid], the IC50 on PTGER2 (EP2) came out at 0.061 µM; at PTGER4 (EP4), 0.256 µM; against EP4 receptor, 0.363 µM.

For the compound `CCOc1nc(-c2cc(NCCc3c(C)sc4c(C)cc(F)cc34)ncn2)sc1-c1noc(=O)[nH]1` [Example 162, 3-(4-Ethoxy-2-{6-[2-(5-fluoro-2,7-dimethyl-benzo[b]thiophen-3-yl)-ethylamino]-pyrimidin-4-yl}-thiazol-5-yl)-[1,2,4]oxadiazol-5(4H)-one [tautomeric form: 3-(4-ethoxy-2-(6-((2-(5-fluoro-2,7-dimethylbenzo[b]thiophen-3-yl)ethyl)amino)pyrimidin-4-yl)thiazol-5-yl)-[1,2,4]oxadiazol-5-ol]], the half-inhibitory concentration (IC50) is 0.006 µM on PTGER2 (EP2), 0.005 µM at PTGER4 (EP4) and 0.051 µM against EP4 receptor.

With `CCc1nc(-c2cc(NCCc3c(C)sc4c(C)cc(F)cc34)ncn2)sc1-c1noc(=O)[nH]1` [Example 163, 3-(4-Ethyl-2-{6-[2-(5-fluoro-2,7-dimethyl-benzo[b]thiophen-3-yl)-ethylamino]-pyrimidin-4-yl}-thiazol-5-yl)-[1,2,4]oxadiazol-5(4H)-one [tautomeric form: 3-(4-ethyl-2-(6-((2-(5-fluoro-2,7-dimethylbenzo[b]thiophen-3-yl)ethyl)amino)pyrimidin-4-yl)thiazol-5-yl)-[1,2,4]oxadiazol-5-ol]], the IC50 on PTGER2 (EP2) stood at 0.026 µM; at PTGER4 (EP4) it was 0.017 µM; at EP4 receptor it was 0.429 µM.

In the case of `CCOc1cc(-c2cc(NCCc3c(C#N)sc4c(OC)cccc34)ncn2)ccc1CC(=O)O` [Example 164, (4-{6-[2-(2-Cyano-7-methoxy-benzo[b]thiophen-3-yl)-ethylamino]-pyrimidin-4-yl}-2-ethoxy-phenyl)-acetic acid], the results for the IC50 on PTGER2 (EP2), on PTGER4 (EP4) and against EP4 receptor were 0.504 µM, 0.05 µM and 0.017 µM, respectively.

Turning to `CCOc1cc(-c2cc(NCCc3c(C#N)sc4c(C)cc(F)cc34)ncn2)cc(F)c1CC(=O)O` [Example 165, (4-{6-[2-(2-Cyano-5-fluoro-7-methyl-benzo[b]thiophen-3-yl)-ethylamino]-pyrimidin-4-yl}-2-ethoxy-6-fluoro-phenyl)-acetic acid], the IC50 turned out to be 0.028 µM at PTGER2 (EP2), 0.054 µM on PTGER4 (EP4) and 0.04 µM at EP4 receptor.

For the compound `Cc1sc2c(C)cccc2c1CCNc1cc(-c2ccc(C(=O)O)c(SCC(C)C)c2)ncn1` [Example 166, 4-{6-[2-(2,7-Dimethyl-benzo[b]thiophen-3-yl)-ethylamino]-pyrimidin-4-yl}-2-isobutylsulfanyl-benzoic acid], the values for the IC50 on PTGER2 (EP2), on PTGER4 (EP4) and against EP4 receptor were 0.031 µM, 0.254 µM and 1.13 µM, respectively.

`CCCc1cc(-c2cc(NCCc3c(C#N)sc4c(C)cc(F)cc34)ncn2)ccc1C(=O)O` [Example 167, 4-{6-[2-(2-Cyano-5-fluoro-7-methyl-benzo[b]thiophen-3-yl)-ethylamino]-pyrimidin-4-yl}-2-propyl-benzoic acid]: the IC50 on PTGER2 (EP2) came out at 0.005 µM; on PTGER4 (EP4) it was 0.034 µM; on EP4 receptor, 0.029 µM.

For the compound `COc1cc(-c2cc(NCCc3c(C#N)sc4c(C)cc(F)cc34)ncn2)ccc1CC(=O)O` [Example 168, (4-{6-[2-(2-Cyano-5-fluoro-7-methyl-benzo[b]thiophen-3-yl)-ethylamino]-pyrimidin-4-yl}-2-methoxy-phenyl)-acetic acid], the half-inhibitory concentration (IC50) at PTGER2 (EP2) was 0.065 µM; at PTGER4 (EP4), 0.066 µM; at EP4 receptor, 2.99 µM.

For `CCCOc1cc(-c2cc(NCCc3c(C#N)sc4c(C)cc(F)cc34)ncn2)ccc1CC(=O)O` [Example 169, (4-{6-[2-(2-Cyano-5-fluoro-7-methyl-benzo[b]thiophen-3-yl)-ethylamino]-pyrimidin-4-yl}-2-propoxy-phenyl)-acetic acid], the IC50 on PTGER2 (EP2) worked out at 0.03 µM; at PTGER4 (EP4), 0.1 µM; at EP4 receptor it was 0.03 µM.

For `CCCc1cc(-c2cc(NCCc3c(C#N)sc4c(C)cc(F)cc34)ncn2)ccc1CC(=O)O` [Example 170, (4-{6-[2-(2-Cyano-5-fluoro-7-methyl-benzo[b]thiophen-3-yl)-ethylamino]-pyrimidin-4-yl}-2-propyl-phenyl)-acetic acid], the IC50 was 0.019 µM at PTGER2 (EP2), 0.019 µM on PTGER4 (EP4) and 0.013 µM on EP4 receptor.

As to `Cc1cc(F)cc2c(CCNc3cc(-c4ccc(CC(=O)O)c(OC(C)C)c4)ncn3)c(C#N)sc12` [Example 171, (4-{6-[2-(2-Cyano-5-fluoro-7-methyl-benzo[b]thiophen-3-yl)-ethylamino]-pyrimidin-4-yl}-2-isopropoxy-phenyl)-acetic acid], the IC50 at PTGER2 (EP2) is 0.059 µM; at PTGER4 (EP4), 0.057 µM; against EP4 receptor it was 0.042 µM.

Take `Cc1cc(F)cc2c(CCNc3cc(-c4ccc(C(=O)O)c(OC(C)C)c4)ncn3)c(C#N)sc12` [Example 172, 4-{6-[2-(2-Cyano-5-fluoro-7-methyl-benzo[b]thiophen-3-yl)-ethylamino]-pyrimidin-4-yl}-2-isopropoxy-benzoic acid]: the figures for the IC50 at PTGER2 (EP2), at PTGER4 (EP4) and at EP4 receptor were 0.04 µM, 0.166 µM and 0.07 µM, respectively.

As to `CCOc1cc(-c2cc(NCCc3c(C#N)sc4c(C)cc(F)cc34)ncn2)ccc1OCCC(=O)O` [Example 176, 3-(4-{6-[2-(2-Cyano-5-fluoro-7-methyl-benzo[b]thiophen-3-yl)-ethylamino]-pyrimidin-4-yl}-2-ethoxy-phenoxy)-propionic acid], the IC50 at PTGER2 (EP2) was found to be 0.009 µM; on PTGER4 (EP4), 0.019 µM; at EP4 receptor, 0.012 µM.

As to `Cc1sc2c(C)cc(F)cc2c1CCNc1cc(-c2ccc(CC(=O)O)c(CC(C)C)c2)ncn1` [Example 182, (4-{6-[2-(5-Fluoro-2,7-dimethyl-benzo[b]thiophen-3-yl)-ethylamino]-pyrimidin-4-yl}-2-isobutyl-phenyl)-acetic acid], the IC50 at PTGER2 (EP2) turned out to be 0.041 µM; on PTGER4 (EP4), 0.164 µM; against EP4 receptor, 0.378 µM.
